This note sets out measurements from ChEMBL document CHEMBL4334464, “From Phenylthiazoles to Phenylpyrazoles: Broadening the Antibacterial Spectrum toward Carbapenem-Resistant Bacteria” (J Med Chem, 2019).

In brackets after ≈: the same amount, converted by molar mass.

Type in all cases: functional
One experiment deals with Staphylococcus aureus. As to the kind of experiment: Antibacterial activity against methicillin-resistant Staphylococcus aureus NRS384-USA300 clinical isolates after 18 to 20 hrs in aerobic condition by CLSI protocol based broth microdilution assay. (In general: Dilution methods test growth across graded concentrations, often in twofold steps.)
Experiment [1] concerns Escherichia coli. Nature of the experiment: Antimicrobial activity against Escherichia coli JW55031 harboring deltatolC mutant after 18 to 20 hrs in aerobic condition by CLSI protocol based broth microdilution assay.
A further experiment deals with Pseudomonas aeruginosa. Nature of the experiment: Antibacterial activity against carbapenem-resistant Pseudomonas aeruginosa ATCC 1744 clinical isolates after 18 to 20 hrs in aerobic condition by CLSI-based broth microdilution assay.
In another experiment the test system is Acinetobacter baumannii. As to the kind of experiment: Antibacterial activity against carbapenem-resistant Acinetobacter baumannii ATCC BAA 1605 clinical isolates after 18 to 20 hrs in aerobic condition by CLSI-based broth microdilution assay.
The test system of experiment [2] is Escherichia coli. Nature of the experiment: Antibacterial activity against carbapenem-resistant Escherichia coli BAA-2452 clinical isolates after 18 to 20 hrs in aerobic condition by CLSI-based broth microdilution assay.
Experiment [3] has as its system Escherichia coli. As to the kind of experiment: Antibacterial activity against carbapenem-resistant Escherichia coli BAA-2469 clinical isolates after 18 to 20 hrs in aerobic condition by CLSI-based broth microdilution assay.
Experiment [4] has as its system Klebsiella pneumoniae. As to the kind of experiment: Antibacterial activity against carbapenem-resistant Klebsiella pneumoniae ATCC BAA-2146 clinical isolates after 18 to 20 hrs in aerobic condition by CLSI-based broth microdilution assay.
The subject of experiment [5] is Klebsiella pneumoniae. Nature of the experiment: Antibacterial activity against carbapenem-resistant Klebsiella pneumoniae ATCC BAA-1705 clinical isolates after 18 to 20 hrs in aerobic condition by CLSI-based broth microdilution assay.

On to `CCCCC#Cc1ccc(-n2ncc(/C(C)=N/NC3=NCCN3)c2C)cc1`, for which the MIC (commonly the smallest concentration in the dilution series that meets the test's criterion for growth inhibition) amounted to 2 µg/mL (≈ 5.52 µM) in the experiment with Staphylococcus aureus and 4 µg/mL (≈ 11 µM) with Escherichia coli [1].

Consider `CCCCCCC#Cc1ccc(-n2ncc(/C(C)=N/NC(=N)N)c2C)cc1`, for which the MIC in the experiment with Staphylococcus aureus was 2 µg/mL (≈ 5.49 µM); in the experiment with Escherichia coli [1], 8 µg/mL (≈ 21.9 µM).

Turning to `CCCCC#Cc1ccc(-n2ncc(/C(C)=N/NC(=N)N)c2C)cc1`, the MIC against Staphylococcus aureus was determined as 2 µg/mL (≈ 5.94 µM); in the experiment on Escherichia coli [1], 4 µg/mL (≈ 11.9 µM).

Turning to `C/C(=N\NC1=NCCN1)c1cnn(-c2ccc(C#CC3CC3)cc2)c1C`, the MIC came to 16 µg/mL (≈ 46.2 µM) against Staphylococcus aureus and 32 µg/mL (≈ 92.4 µM) in the experiment on Escherichia coli [1].

On to `C/C(=N\NC(=N)N)c1cnn(-c2ccc(C#CC3CC3)cc2)c1C`, for which the MIC against Staphylococcus aureus and with Escherichia coli [1] was 8 µg/mL (≈ 25 µM) each time.

For `C/C(=N\NC1=NCCN1)c1cnn(-c2ccc(C#CC3(O)CCCCC3)cc2)c1C`, the MIC amounted to 64 µg/mL (≈ 158 µM) with Staphylococcus aureus and 32 µg/mL (≈ 79.1 µM) against Escherichia coli [1].

Take COLISTIN: the MIC is 1 µg/mL in the experiment with Pseudomonas aeruginosa; 0.25 µg/mL against Acinetobacter baumannii; 0.06 µg/mL in the experiment on Escherichia coli [2]; 0.06 µg/mL against Escherichia coli [3]; 0.25 µg/mL with Klebsiella pneumoniae [4]; 0.125 µg/mL in the experiment with Klebsiella pneumoniae [5].

On to `CCN(CC)CC#Cc1ccc(-n2ncc(/C(C)=N/NC(=N)N)c2C)cc1`, for which the minimum inhibitory concentration (MIC) against Staphylococcus aureus and in the experiment with Escherichia coli [1] was 128 µg/mL (≈ 350 µM) throughout.

With `CCCCCCC#Cc1ccc(-n2ncc(/C(C)=N/NC3=NCCN3)c2C)cc1`, the MIC against Staphylococcus aureus is 4 µg/mL (≈ 10.2 µM); in the experiment on Escherichia coli [1] it was 8 µg/mL (≈ 20.5 µM).

For `C/C(=N\NC1=NCCN1)c1cnn(-c2ccc(C#CC(C)(C)O)cc2)c1C`, the values for the MIC in the experiment with Staphylococcus aureus and in the experiment on Escherichia coli [1] were 32 µg/mL (≈ 87.8 µM) and 16 µg/mL (≈ 43.9 µM), respectively.

With `C/C(=N\NC(=N)N)c1cnn(-c2ccc(C#CC(C)(C)O)cc2)c1C`, the MIC against Staphylococcus aureus and in the experiment on Escherichia coli [1] was 128 µg/mL (≈ 378 µM) throughout.

Turning to `CCN(CC)CC#Cc1ccc(-n2ncc(/C(C)=N/NC3=NCCN3)c2C)cc1`, the minimal inhibitory concentration (MIC) in the experiment with Staphylococcus aureus and against Escherichia coli [1] was more than 128 µg/mL throughout.

For `C/C(=N\NC(=N)N)c1cnn(-c2ccc(C#CC(C)(C)C)cc2)c1C`, the MIC with Staphylococcus aureus and with Escherichia coli [1] was 8 µg/mL (≈ 23.8 µM) each time.

On to `C/C(=N\NC1=NCCN1)c1cnn(-c2ccc(C#Cc3ccccc3)cc2)c1C`, for which the MIC with Staphylococcus aureus and against Escherichia coli [1] was 4 µg/mL (≈ 10.5 µM) in each case.

In the case of `C[C@@H](O)[C@H]1C(=O)N2C(C(=O)O)=C(S[C@@H]3CN[C@H](C(=O)N(C)C)C3)[C@H](C)[C@H]12` [MEROPENEM], the MIC amounted to 16 µg/mL (≈ 41.7 µM) in the experiment on Pseudomonas aeruginosa; 32 µg/mL (≈ 83.4 µM) in the experiment on Acinetobacter baumannii; 32 µg/mL (≈ 83.4 µM) in the experiment with Escherichia coli [2]; 32 µg/mL (≈ 83.4 µM) in the experiment with Escherichia coli [3]; 64 µg/mL (≈ 167 µM) in the experiment with Klebsiella pneumoniae [4]; 32 µg/mL (≈ 83.4 µM) with Klebsiella pneumoniae [5].

On to `CN(C)c1cc(NC(=O)CNC(C)(C)C)c(O)c2c1C[C@H]1C[C@H]3[C@H](N(C)C)C(O)=C(C(N)=O)C(=O)[C@@]3(O)C(O)=C1C2=O` [TIGECYCLINE], for which the minimum inhibitory concentration (MIC) amounted to 8 µg/mL (≈ 13.7 µM) in the experiment on Pseudomonas aeruginosa; 1 µg/mL (≈ 1.71 µM) against Acinetobacter baumannii; 0.25 µg/mL (≈ 0.427 µM) in the experiment with Escherichia coli [2]; 0.5 µg/mL (≈ 0.854 µM) in the experiment on Escherichia coli [3]; 4 µg/mL (≈ 6.83 µM) in the experiment on Klebsiella pneumoniae [4]; 1 µg/mL (≈ 1.71 µM) with Klebsiella pneumoniae [5].

As to `C[C@@H](O)[C@H]1C(=O)N2C(C(=O)O)=C(SCCNC=N)C[C@H]12` [IMIPENEM ANHYDROUS], the MIC came to 16 µg/mL (≈ 53.4 µM) with Pseudomonas aeruginosa; 32 µg/mL (≈ 107 µM) in the experiment on Acinetobacter baumannii; 32 µg/mL (≈ 107 µM) against Escherichia coli [2]; 32 µg/mL (≈ 107 µM) in the experiment on Escherichia coli [3]; 32 µg/mL (≈ 107 µM) against Klebsiella pneumoniae [4]; 32 µg/mL (≈ 107 µM) in the experiment on Klebsiella pneumoniae [5].

As to `CCCC#Cc1ccc(-n2ncc(/C(C)=N/NC3=NCCN3)c2C)cc1`, the MIC against Staphylococcus aureus was 8 µg/mL (≈ 23 µM); against Escherichia coli [1], 16 µg/mL (≈ 45.9 µM).

Regarding `C/C(=N\NC1=NCCN1)c1cnn(-c2ccc(C#CC3CCCCC3)cc2)c1C`, the MIC in the experiment with Staphylococcus aureus and in the experiment with Escherichia coli [1] was 4 µg/mL (≈ 10.3 µM) throughout.
